Experimental data reported in patent publication US4550186A, “Binuclear copper (II) carboxylates formed from amine-carboxyboranes” (Duke University, priority 1983, dated 1985).
Read-outs that look alike come from different tables or passages of the source.

Assays:
[1] = target: T1, messenger ribonucleic acid polymerase (Mus musculus, UniProt P08775+Q8CFI7); assay: In vivo messenger ribonucleic acid polymerase activity
T1 construct: enzymes isolated from nuclei; endogenous in cells; host or cells: Ehrlich ascites tumor cell nuclei, ammonium sulfate fraction
Protocol: (§1) CF1 male mice (~30 g) were implanted with 2×10^6 Ehrlich ascites tumor cells, intraperitoneally on Day 0. Compound I was suspended by homogenation in 0.05% polysorbate.80-water and administered intraperitoneally at 10 and 20 mg/kg for 9 days to determine its effectiveness for inhibition of tumor growth. Mice were sacrificed on Day 10, and the ascites fluid was collected from the peritoneal cavity. The volume and ascrit (packed cell volume) were determined for each animal and the percent inhibition of tumor growth was calculated. For the metabolic studies, mice were treated on Days 8 and 9 with 10 mg/kg of Compound I, intraperitoneally. The animal was sacrificed on Day 10 and the ascites fluid harvested. The in vitro metabolic studies were performed at 0.25, 0.50 and 1 mmol final concentration of Compound I.
(§2) In vitro and in vivo nuclear deoxyribonucleic acid polymerase activity was determined on isolated Ehrlich ascites cell nuclei. The incubation was that described by Sawada et al [Can. Res., 34, 3341 (1974)] except that [methyl-^3 H] deoxythymidine triphosphate (82.4 Ci/mmol) was used. The acid insoluble nucleic acid was collected on GF/F filters and counted. Nuclear ribonucleic acid polymerase activities were determined on enzymes isolated from nuclei. […] The acid insoluble ribonucleic acid was collected on nitrocellulose filters and counted.

[2] = system: deoxyribonucleic acid polymerase; assay: In vivo nuclear deoxyribonucleic acid polymerase activity; set-up: species or system mouse
Protocol: as §1, §2

[3] = target: T2, orotidine monophosphate decarboxylase (Mus musculus, UniProt P13439); assay: In vivo orotidine monophosphate decarboxylase activity
T2 construct: OMP decarboxylase domain of UMP synthase
Protocol: as §1, with “The animal was sacrificed on Day 10 and the ascites fluid harvested. The in vitro metabolic studies were performed at 0.25, 0.50 and 1 mmol final concentration of Compound I.” left out
Carbamyl phosphate synthetase activity was determined using the reaction medium of Kalman et al [Am. […] Citrulline formed from ornithine was measured at 490 nm by the method of Archibald [J. Biol. Chem., 156, 121 (1944)]. […] The ^14 CO2 generated in 15 min was trapped in 1M KOH and counted. Thymidylate synthetase activity was determined using a post-mitochondrial supernatant (9000 g×10 min) and 5 μCi of 5-^3 H-deoxyuridine monophosphate (14 Ci/mmol) according to the method of Kampf et al [ J. Med. Chem., 19, 903 (1976)]. ^14 C-Formate incorporation into purines was determined by the method of Spassova et al [Biochem. Pharmacol., 25, 923 (1976)] using 0.5 μCi of ^14 C-formic acid (52.0 mCi/mmol). […] The Rf value for xanthine monophosphate was scraped and counted. […]

[4] = 10 mg/kg/day I.P. on Days 8 and 9

T2 sequence (P13439 whole entry, the tested form may be a part): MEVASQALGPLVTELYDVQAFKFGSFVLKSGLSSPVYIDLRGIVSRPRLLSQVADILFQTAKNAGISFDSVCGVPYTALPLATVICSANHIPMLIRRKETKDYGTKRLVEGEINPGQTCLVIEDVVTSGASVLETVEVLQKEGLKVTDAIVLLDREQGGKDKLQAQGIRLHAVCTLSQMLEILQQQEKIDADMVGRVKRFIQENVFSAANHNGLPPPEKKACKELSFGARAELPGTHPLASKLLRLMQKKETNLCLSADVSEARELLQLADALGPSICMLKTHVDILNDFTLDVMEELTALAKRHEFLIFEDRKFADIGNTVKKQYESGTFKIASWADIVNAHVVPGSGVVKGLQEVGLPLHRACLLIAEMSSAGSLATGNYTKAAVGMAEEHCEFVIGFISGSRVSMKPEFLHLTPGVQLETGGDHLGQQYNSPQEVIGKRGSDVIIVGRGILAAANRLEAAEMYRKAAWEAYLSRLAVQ

Substance: {Cu[(CH3)3 N.BH2 CO2 ]2.(CH3)3 N.BH2 COOH} [Compound I]
- Messenger ribonucleic acid polymerase activity [1]: not affected
- Messenger ribonucleic acid polymerase activity [1, 4]: 96 ± 9 % Control
- Nuclear deoxyribonucleic acid polymerase activity reduced [2]: 62%
- Deoxyribonucleic acid polymerase activity [2, 4]: 38 ± 5 % Control
- Orotidine monophosphate decarboxylase activity [3]: not affected
- Orotidine monophosphate decarboxylase activity [3, 4]: 106 ± 9 % Control
